Experimental data: ChEMBL document CHEMBL1155411, “Design of two new chemotypes for inhibiting the Janus kinase 2 by scaffold morphing” (Bioorg Med Chem Lett, 2010)

Target: Tyrosine-protein kinase JAK2 (Homo sapiens, UniProt O60674)
Assay: Inhibition of recombinant GST tagged JAK2 after 60 mins by Caliper mobility shift assay

Sequence of Tyrosine-protein kinase JAK2 (O60674 whole entry): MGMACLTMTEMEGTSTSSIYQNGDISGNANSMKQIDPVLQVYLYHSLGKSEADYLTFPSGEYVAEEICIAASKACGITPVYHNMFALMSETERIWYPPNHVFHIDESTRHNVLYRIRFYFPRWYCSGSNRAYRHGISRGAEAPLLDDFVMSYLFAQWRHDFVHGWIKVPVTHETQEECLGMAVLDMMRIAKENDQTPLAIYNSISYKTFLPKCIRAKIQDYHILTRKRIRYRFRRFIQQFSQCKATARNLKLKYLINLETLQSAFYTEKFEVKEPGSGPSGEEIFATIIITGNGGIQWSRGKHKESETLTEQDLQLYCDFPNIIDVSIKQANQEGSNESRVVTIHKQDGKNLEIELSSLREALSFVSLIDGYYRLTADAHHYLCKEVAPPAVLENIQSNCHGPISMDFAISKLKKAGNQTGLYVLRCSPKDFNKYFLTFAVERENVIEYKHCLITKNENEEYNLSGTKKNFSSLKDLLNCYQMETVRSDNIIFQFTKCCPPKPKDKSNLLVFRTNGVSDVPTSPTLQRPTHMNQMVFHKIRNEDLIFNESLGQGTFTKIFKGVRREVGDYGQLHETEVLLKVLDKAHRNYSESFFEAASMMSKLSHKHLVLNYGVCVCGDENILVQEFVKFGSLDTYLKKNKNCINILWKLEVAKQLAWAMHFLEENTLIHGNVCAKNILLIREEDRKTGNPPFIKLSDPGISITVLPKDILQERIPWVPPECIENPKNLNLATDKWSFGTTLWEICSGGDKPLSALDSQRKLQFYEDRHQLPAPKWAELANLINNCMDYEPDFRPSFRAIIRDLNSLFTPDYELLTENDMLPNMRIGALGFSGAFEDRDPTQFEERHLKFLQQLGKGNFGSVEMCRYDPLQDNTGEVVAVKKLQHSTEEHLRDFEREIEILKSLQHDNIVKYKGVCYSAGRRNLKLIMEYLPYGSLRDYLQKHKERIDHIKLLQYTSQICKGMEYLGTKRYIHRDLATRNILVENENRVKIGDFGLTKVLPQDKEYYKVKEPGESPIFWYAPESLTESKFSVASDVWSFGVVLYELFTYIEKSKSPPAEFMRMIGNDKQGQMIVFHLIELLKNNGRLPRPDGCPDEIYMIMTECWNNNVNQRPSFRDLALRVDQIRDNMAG

Work on `COc1cc(Nc2ncc3ccn(-c4ccccn4)c3n2)cc(OC)c1OC` yielded an IC50 of 5.9 nM.
